Measured values reported in ChEMBL document CHEMBL4393658, “Fluorinated indole-imidazole conjugates: Selective orally bioavailable 5-HT7 receptor low-basicity agonists, potential neuropathic painkillers” (Eur J Med Chem, 2019).

What was measured:
[1] = Ratio of drug level in CD-1 mouse brain to plasma by LC-ESI/MS/MS analysis; assay type: ADME; settings: brain and plasma
[2] = Brain to plasma distribution coefficient in CD-1 mouse; assay type: ADME, organism-based; settings: brain and plasma
[3] = Tmax in CD-1 mouse brain at […], ip by LC-MS/MS analysis; assay type: ADME, organism-based
[4] = Bioavailability in CD-1 mouse at […], ip by LC-MS/MS analysis; assay type: ADME, organism-based; settings: in vivo
[5] = Bioavailability in CD-1 mouse at […], ig by LC-MS/MS analysis; assay type: ADME, organism-based; settings: in vivo, po
[6] = Cmax in CD-1 mouse brain at […], ip by LC-MS/MS analysis; assay type: ADME, organism-based; design: dose 2.5 mg/kg, route intraperitoneal
[7] = Volume of distribution in CD-1 mouse at […], ip by LC--MS/MS analysis; assay type: ADME, organism-based; settings: in vivo
[8] = Volume of distribution at steady state in CD-1 mouse at […] by LC-MS/MS analysis; assay type: ADME, organism-based; settings: in vivo, read-out: Vdss
[9] = Half life in CD-1 mouse at […], iv by LC-MS/MS analysis; assay type: ADME, organism-based; settings: in vivo
Mus musculus = test: Ratio of half life in CD-1 mouse at […], ip to half life in mouse at […], ig; assay type: ADME, organism-based; settings: in vivo
[10] = Half life in CD-1 mouse by LC-MS/MS analysis; assay type: ADME; settings: in vivo
[11] = Drug uptake in CD-1 mouse brain at […] , iv by LC/MS/MS analysis; assay type: ADME, organism-based; settings: in vivo
[12] = Drug uptake in CD-1 mouse brain at […] , ip by LC/MS/MS analysis; assay type: ADME, organism-based; settings: in vivo
[13] = Drug uptake in CD-1 mouse brain at […] , ig by LC/MS/MS analysis; assay type: ADME, organism-based; settings: in vivo, po
[14] = Tmax in CD-1 mouse at […], ip by LC-MS/MS analysis; assay type: ADME, organism-based; settings: in vivo

SMILES: CCn1cncc1-c1c[nH]c2ccc(I)c(F)c12.Cl
- Kp [1]: 1.88 to 4.76
- Kp [2]: 3.48
- Tmax [3]: 0.5 h
- bioavailability [4]: 39%
- bioavailability [5]: 24%
- Cmax [6]: 1070 ng/g
- Vd [7]: 33.5 L/kg
- Vd [8]: 2.8 L/kg
- half-life [9]: 3.17 h
- Ratio (Mus musculus): 2
- half-life [10]: 3.37 h
- Drug uptake [11]: Active
- Drug uptake [12]: Active
- Drug uptake [13]: Active
- Tmax [14]: 5 min
